The text below walks through data of PubChem BioAssay AID248 (DTP/NCI, 2004).

Values joined by “and” are separate entries in the source; they are usually repeats but may differ in a detail not shown here. Identical values can stand only once. Toxic doses and inconclusive results are not listed. Peptide text beside a SMILES is read from it. * marks the point of attachment. Trt = c1ccc(C(c2ccccc2)(c2ccccc2)*)cc1

The test system of this assay is L1210 leukemia ip in BDF1 mice, survival T/C. Description: NCI In Vivo Anticancer Drug Screen. Data for tumor model L1210 Leukemia (intraperitoneal) in B6D2F1 (BDF1) mice. The following applies: endpoint: mean survival time, higher = longer survival. The method in brief:
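Value reflects the ratio of survival in compound-treated mice to survival in vehicle-treated controls, with both groups carrying the same transplanted tumor.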

The mark [1] stands for this setting: dose: 100.0 mg/kg/injection, schedule: Q01DX001 (ip), vehicle: saline.
[2] abbreviates: dose: 100.0 mg/kg/injection, schedule: Q04DX003 (ip), vehicle: saline.
The mark [3] stands for this setting: dose: 200.0 mg/kg/injection, schedule: Q04DX003 (ip), vehicle: saline.
The mark [4] stands for this setting: dose: 400.0 mg/kg/injection, schedule: Q04DX003 (ip), vehicle: saline.
The mark [5] stands for this setting: dose: 400.0 mg/kg/injection, schedule: Q01DX009 (ip), vehicle: saline.

In the case of `Cc1cc(N)c2cc(NC(=O)CCCCCCCCC(=O)Nc3ccc4nc(C)cc(N)c4c3)ccc2n1`, the T/C by setting is: (dose: 8.9 mg/kg/injection, schedule: Q01DX Z (ip), vehicle: saline) 103 % of control and 114 % of control; (dose: 12.0 mg/kg/injection, schedule: Q01DX Z (ip), vehicle: methylcellulose (MC)) 96 % of control; (dose: 12.0 mg/kg/injection, schedule: Q01DX Z (ip), vehicle: saline) 121 % of control; (dose: 13.3 mg/kg/injection, schedule: Q01DX Z (ip), vehicle: carboxymethylcellulose (CMC)) 114 % of control; (dose: 13.3 mg/kg/injection, schedule: Q01DX Z (ip), vehicle: saline) 111 % of control; (dose: 18.0 mg/kg/injection, schedule: Q01DX Z (ip), vehicle: methylcellulose (MC)) 100 % of control. Besides, the T/C by setting is: (dose: 18.0 mg/kg/injection, schedule: Q01DX Z (ip), vehicle: saline) 119 % of control; (dose: 20.0 mg/kg/injection, schedule: Q01DX Z (ip), vehicle: carboxymethylcellulose (CMC)) 112 % of control; (dose: 20.0 mg/kg/injection, schedule: Q01DX Z (ip), vehicle: saline) 114 % of control and 122 % of control; (dose: 27.0 mg/kg/injection, schedule: Q01DX Z (ip), vehicle: methylcellulose (MC)) 96 % of control; (dose: 27.0 mg/kg/injection, schedule: Q01DX Z (ip), vehicle: saline) 123 % of control; (dose: 30.0 mg/kg/injection, schedule: Q01DX Z (ip), vehicle: carboxymethylcellulose (CMC)) 108 % of control. Further, the T/C is 115 % of control (dose: 30.0 mg/kg/injection, schedule: Q01DX Z (ip), vehicle: saline); 96 % of control (dose: 40.0 mg/kg/injection, schedule: Q01DX Z (ip), vehicle: methylcellulose (MC)); 121 % of control (dose: 40.0 mg/kg/injection, schedule: Q01DX Z (ip), vehicle: saline); 106 % of control (dose: 50.0 mg/kg/injection, schedule: Q01DX001 (ip), vehicle: saline); 107 % of control (dose: 90.0 mg/kg/injection, schedule: Q01DX Z (ip), vehicle: methylcellulose (MC)); 113 % of control and 121 % of control and 86 % of control (dose: 90.0 mg/kg/injection, schedule: Q01DX Z (ip), vehicle: saline). Further, the T/C under setting [1] is 120 % of control; the T/C (dose: 100.0 mg/kg/injection, schedule: Q04DX003 (ip), vehicle: carboxymethylcellulose (CMC)) was 121 % of control; the T/C (dose: 135.0 mg/kg/injection, schedule: Q01DX Z (ip), vehicle: methylcellulose (MC)) was 93 % of control; the T/C (dose: 200.0 mg/kg/injection, schedule: Q01DX001 (ip), vehicle: saline) is 112 % of control; the T/C (dose: 200.0 mg/kg/injection, schedule: Q04DX003 (ip), vehicle: carboxymethylcellulose (CMC)) was 117 % of control; the T/C (dose: 400.0 mg/kg/injection, schedule: Q04DX003 (ip), vehicle: carboxymethylcellulose (CMC)) was 116 % of control.
Take `Cc1ccc(S(=O)(=O)OCC(O)C(OC(=O)c2ccccc2)C(OC(=O)c2ccccc2)C(CO)OC(=O)c2ccccc2)cc1` (stereo unspecified): the T/C runs as follows: (dose: 25.0 mg/kg/injection, schedule: Q01DX001 (ip), vehicle: saline with Tween-80) 92 % of control; (dose: 50.0 mg/kg/injection, schedule: Q01DX001 (ip), vehicle: saline with Tween-80) 95 % of control; (dose: 100.0 mg/kg/injection, schedule: Q01DX001 (ip), vehicle: saline with Tween-80) 88 % of control and 89 % of control.
As for `CN(CC(=O)O)C(=O)CN=Cc1ccccc1`, the T/C reads like this: under setting [2], 96 % of control; under setting [3], 97 % of control; under setting [4], 97 % of control.
`C/C(=C/c1ccccc1)OC(=O)c1ccccc1`: the T/C is 87 % of control (dose: 50.0 mg/kg/injection, schedule: Q01DX001 (ip), vehicle: carboxymethylcellulose (CMC)) and 86 % of control (dose: 100.0 mg/kg/injection, schedule: Q01DX001 (ip), vehicle: carboxymethylcellulose (CMC)).
As for `CCC[CH2][Sn]1([CH2]CCC)[O]C(=O)c2cccc([N+](=O)[O-])c2C(=O)[O]1`, the T/C under setting [1] was 117 % of control.
For `OC1CCN2CCCc3cccc1c32` (stereo unspecified), the T/C runs as follows: (dose: 12.5 mg/kg/injection, schedule: Q01DX009 (ip), vehicle: DMSO) 93 % of control; (dose: 12.5 mg/kg/injection, schedule: Q04DX003 (ip), vehicle: DMSO) 94 % of control; (dose: 25.0 mg/kg/injection, schedule: Q01DX009 (ip), vehicle: DMSO) 94 % of control; (dose: 25.0 mg/kg/injection, schedule: Q04DX003 (ip), vehicle: DMSO) 95 % of control; (dose: 50.0 mg/kg/injection, schedule: Q01DX009 (ip), vehicle: DMSO) 90 % of control; (dose: 50.0 mg/kg/injection, schedule: Q04DX003 (ip), vehicle: DMSO) 105 % of control.
On to `CC1(C)N=C(N)N=C(N)N1c1ccc(OCCOc2ccc(NC(=O)CBr)cc2)cc1`, for which the T/C is 124 % of control (dose: 120.0 mg/kg/injection, schedule: Q01DX009 (ip), vehicle: saline); 112 % of control (dose: 176.0 mg/kg/injection, schedule: Q01DX009 (ip), vehicle: saline); 107 % of control (dose: 266.0 mg/kg/injection, schedule: Q01DX009 (ip), vehicle: saline); 98 % of control under setting [5].
As to `CN(C)/N=C/c1ccc(-c2ccccc2)cc1`, the T/C was 95 % of control (dose: 100.0 mg/kg/injection, schedule: Q01DX009 (ip), vehicle: saline with Tween-80); 111 % of control (dose: 200.0 mg/kg/injection, schedule: Q01DX009 (ip), vehicle: saline with Tween-80); 102 % of control (dose: 400.0 mg/kg/injection, schedule: Q01DX009 (ip), vehicle: saline with Tween-80).
Take `CC(=O)c1ccc(-c2ccc(C(C)=O)cc2)cc1`: the T/C runs as follows: (dose: 100.0 mg/kg/injection, schedule: Q04DX002 (ip), vehicle: Klucel (hydroxypropylcellulose) (HPC)) 97 % of control; (dose: 200.0 mg/kg/injection, schedule: Q04DX002 (ip), vehicle: Klucel (hydroxypropylcellulose) (HPC)) 101 % of control; (dose: 400.0 mg/kg/injection, schedule: Q04DX002 (ip), vehicle: Klucel (hydroxypropylcellulose) (HPC)) 97 % of control.
Consider `COC(=O)C(NC(=O)C(N)CSC(c1ccccc1)(c1ccccc1)c1ccccc1)C(C)C` (stereo unspecified) (H-Cys(Trt)-Val-OMe; configuration not given here), for which the T/C is 104 % of control and 118 % of control (dose: 50.0 mg/kg/injection, schedule: Q01DX009 (ip), vehicle: saline); 109 % of control (dose: 100.0 mg/kg/injection, schedule: Q01DX009 (ip), vehicle: saline); 104 % of control under setting [5].
Turning to `O=C1C2CCN(CC2)C1C(c1ccccc1)c1ccccc1` (stereo unspecified), the T/C under setting [2] is 96 % of control, the T/C under setting [3] is 102 % of control and the T/C under setting [4] was 100 % of control.
In the case of `CC(=O)NCC(O)C(O)C(O)C(O)CO` (stereo unspecified), the T/C reads like this: (dose: 100.0 mg/kg/injection, schedule: Q04DX002 (ip), vehicle: saline) 98 % of control; (dose: 200.0 mg/kg/injection, schedule: Q04DX002 (ip), vehicle: saline) 92 % of control; (dose: 400.0 mg/kg/injection, schedule: Q04DX002 (ip), vehicle: saline) 103 % of control.
In the case of `O=C(CC(c1ccccc1)c1ccccc1)NS(=O)(=O)c1ccccc1`, the T/C runs as follows: (dose: 100.0 mg/kg/injection, schedule: Q04DX003 (ip), vehicle: Klucel (hydroxypropylcellulose) (HPC)) 94 % of control; (dose: 200.0 mg/kg/injection, schedule: Q04DX003 (ip), vehicle: Klucel (hydroxypropylcellulose) (HPC)) 97 % of control; (dose: 400.0 mg/kg/injection, schedule: Q04DX003 (ip), vehicle: Klucel (hydroxypropylcellulose) (HPC)) 97 % of control.
Regarding `CC1CCCC(NC(=O)N(CCCl)N=O)C1` (stereo unspecified), the T/C (dose: 8.0 mg/kg/injection, schedule: Q01DX001 (ip), vehicle: other) is 109 % of control; the T/C (dose: 27.0 mg/kg/injection, schedule: Q01DX001 (ip), vehicle: other) was 307 % of control; the T/C (dose: 31.0 mg/kg/injection, schedule: Q01DX001 (ip), vehicle: other) is 170 % of control; the T/C (dose: 35.0 mg/kg/injection, schedule: Q01DX001 (ip), vehicle: other) is 190 % of control; the T/C (dose: 42.0 mg/kg/injection, schedule: Q01DX001 (ip), vehicle: other) was 348 % of control; the T/C (dose: 62.0 mg/kg/injection, schedule: Q01DX001 (ip), vehicle: other) was 275 % of control and 361 % of control. Further, the T/C is 301 % of control (dose: 71.0 mg/kg/injection, schedule: Q01DX001 (ip), vehicle: other); 307 % of control (dose: 93.0 mg/kg/injection, schedule: Q01DX001 (ip), vehicle: other); 86 % of control (dose: 125.0 mg/kg/injection, schedule: Q01DX001 (ip), vehicle: other); 88 % of control (dose: 286.0 mg/kg/injection, schedule: Q01DX001 (ip), vehicle: other).
